The source of these data is PMC4249827, “A Novel CMKLR1 Small Molecule Antagonist Suppresses CNS Autoimmune Inflammatory Disease” (PLoS ONE, 2014).

Where a name gives a salt, the structure may show the parent alone.

In data set [1] the target is T1, huCMKLR1 (Homo sapiens, UniProt Q99788).
T1 sequence (Q99788 1-373): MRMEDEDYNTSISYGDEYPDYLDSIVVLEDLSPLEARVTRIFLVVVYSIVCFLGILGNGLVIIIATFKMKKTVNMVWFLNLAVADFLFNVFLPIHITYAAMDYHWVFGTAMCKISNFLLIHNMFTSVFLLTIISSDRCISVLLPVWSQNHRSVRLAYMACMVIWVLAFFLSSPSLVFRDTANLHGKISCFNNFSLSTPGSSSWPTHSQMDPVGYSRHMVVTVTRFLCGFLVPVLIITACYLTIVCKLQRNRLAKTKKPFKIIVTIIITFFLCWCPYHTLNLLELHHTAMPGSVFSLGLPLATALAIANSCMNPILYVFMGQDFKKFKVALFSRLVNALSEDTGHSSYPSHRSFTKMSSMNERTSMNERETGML
In words: Transwell chemotaxis of huCMKLR1/L1.2 transfectants to chemerin.

The target in data set [2] is T2, mCMKLR1 (Mus musculus, UniProt P97468).
T2 sequence (P97468 1-371): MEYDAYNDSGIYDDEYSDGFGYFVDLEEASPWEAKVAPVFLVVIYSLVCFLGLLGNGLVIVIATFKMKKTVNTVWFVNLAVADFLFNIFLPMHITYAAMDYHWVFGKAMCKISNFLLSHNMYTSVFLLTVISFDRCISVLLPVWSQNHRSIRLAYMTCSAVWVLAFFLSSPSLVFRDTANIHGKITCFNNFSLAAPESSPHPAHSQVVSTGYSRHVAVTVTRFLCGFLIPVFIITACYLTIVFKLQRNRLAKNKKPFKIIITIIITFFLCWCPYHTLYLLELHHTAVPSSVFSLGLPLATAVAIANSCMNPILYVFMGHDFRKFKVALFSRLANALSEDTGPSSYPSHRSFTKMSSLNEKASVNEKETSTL
Kind of data set: Transwell chemotaxis of mCMKLR1/L1.2 transfectants to chemerin.

For data set [3], the target named is T1, huCMKLR1. In words: β-arrestin2 (β-ARR2) enzymatic complementation assay, CMKLR1/CHO cells. The data set is classed as cell-based. More on the design: host or cells: CHO. The settings on record: for IC50: mean±SEM, n = 3-14 independent experiments, read-out: IC50 (µM), β-arrestin, huCMKLR1. The text has this: The engagement of a chemoattractant receptor by its cognate ligand stimulates the recruitment of β-arrestin to the carboxyl-terminus of the receptor, an event that results in receptor internalization and termination of G protein-mediated signaling. […] To test this, we used an enzymatic complementation assay (the β-ARR2 assay), whereby the complementary fragments from the β-gal active site are fused to the carboxyl-terminus of CMKLR1 and β-arrestin2. The special association of these molecules leads to enzyme activity, which is detected by a chemiluminescent substrate.

Data set [4] relates to Choline acetyltransferase. The following applies: cited from earlier work.
The conditions of data set [5]: literature statement; cited from earlier work.

`CN(C)CCC(=O)c1cccc2ccccc12` [α-NEDA, 2-(α-naphthoyl)ethyldimethylamine]: the IC50 in data set [1] stood at 77 ± 23 µM; in data set [2], 78 ± 22 µM; in data set [3], 7.5 ± 0.74 µM. Also, the “fold less potent than α-NETA” value in data set [3] (chemerin-stimulated β-ARR2 association with CMKLR1 or CMKLR1+ cell migration) is listed as 10–20 fold. The “fold less potent than α-NETA in inhibiting ChAT enzyme activity” value in data set [4] is recorded as 7 fold.
Turning to `COC(=O)/C=C/C(=O)O` [monomethyl fumarate], the “bound by serum proteins” value in data set [5] is on record as 30%.
Consider `c1ccc2ccccc2c1` [naphthalene, reference compound], for which the half-maximal inhibitory concentration (IC50) was > 100 µM in data set [1], > 100 µM in data set [2] and > 10 µM in data set [3]. Also, in data set [3] (β-ARR2 and transwell migration assays), the “inhibitory activity in the in vitro assays” value is reported as “no inhibitory activity”.
